In patent US20230149360A1, “ALPHA-2 ADRENERGIC RECEPTOR AGONISTS FOR THE PREVENTION AND/OR THE TREATMENT OF SPLEEN DISORDERS” (UNIVERSITÉ CATHOLIQUE DE LOUVAIN, priority 2020, published 2023):

Tests used:
TiRP tumor bearing mice = test: Tumor-induced splenomegaly in TiRP tumor bearing mice (spleen weight); type: in vivo; conditions: 5 mg/kg i.p. daily from tumor size around 500 mm^3 until sacrifice
Source text: TiRP mice have been created by crossing Ink4a/Arf^flox/flox mice with mice carrying a transgenic construct controlled by the tyrosinase promoter and driving the expression of H-Ras^12V and Trap1a which encodes a MAGE-type tumor antigen […]; the promoter is separated from the coding region by a stop cassette made of a floxed self-deleting CreER (Huijbers et al., 2006, Cancer Res 66, 3278-3286). Those mice were backcrossed to a B10.D2 background and bred to homozygosity. TCR[…] mice heterozygous for the H-2Ld/[…]-43-specific TCR transgene were kept on the B10.D2;Rag1^-/- background ([…] et al., 2004, J Immunol 172, 5069-5077). DBA/2 mice and C57BL/6J mice were used in tumor transplantation and mice immunization experiments. All mice used in this study were produced under specific pathogen free (SPF) conditions at the animal facility of the de Duve Institute. All the rules concerning animal welfare have been respected according to the 2010/63/EU Directive. All procedures were performed with the approval of the local Animal Ethical Committee, with reference 2015/UCL/MD/15. A fresh solution of […]-Tamoxifen was prepared by dissolving […]-Tamoxifen ([…]®) in 100% ethanol and mineral oil (ratio 1:9) followed by 30 min sonication, and injected subcutaneously (2 mg/200 μL per mouse) in the neck area of gender-matched 7 weeks old TiRP mice. Tumor appearance was monitored daily and tumors were measured three times/week. Tumor volume (in mm^3) was calculated by the following formula: Volume=width^2×length/2. C57BL/6 mice were injected subcutaneously with 1 million B16F1 or B16F10 melanoma cells at an age between 6 to 8 weeks. The mice received daily injections of guanabenz (5 mg/kg, i.p.) or PBS when the tumor size was around 100 mm^3. Mice were sacrificed when the tumor in control group reached 1,000 mm^3. Spleen were isolated and weighted. […] TiRP tumor bearing mice received daily injections of clonidine (5 mg/kg, i.p.), romifidine (5 mg/kg, i.p.) or PBS when the tumor size was around 500 mm^3. […] Spleen were isolated and spleen weight was measured with an analytical balance.

[1] = system: BALB/c mice bearing CT26 colon carcinomas; test: Splenomegaly in mice bearing CT26 colon carcinomas, agonist/antagonist evaluation; type: in vivo; conditions: each drug 5 mg/kg i.p. daily from tumor size around 50 mm^3
Experimental: B16F1, B16F10 melanoma cells, and CT26 colon carcinoma cells were cultured in IMDM medium supplemented with 10% Fetal bovine serum (FBS). […] For evaluation of phentolamine on the effect of clonidine and guanabenz, the mice were randomized into different groups when tumors size arrived around 50 mm^3 and received daily injections of guanabenz (5 mg/kg, i.p.), phentolamine (5 mg/kg, i.p.), propranolol (5 mg/kg, i.p.), a mix of guanabenz (5 mg/kg, i.p.) and phentolamin (5 mg/kg, i.p.), clonidine (5 mg/kg, i.p.), a mix of clonidine (5 mg/kg, i.p.) and phentolamin (5 mg/kg, i.p.), a mix of clonidine (5 mg/kg, i.p.) and propranolol (5 mg/kg, i.p.) or vehicle control. Tumor size was measured every 2 days and mice were sacrificed when the tumor in control group reached 1,000 mm^3. Spleen were isolated and spleen weight was measured with an analytical balance. Spleen from mice of same age without tumors were used as controls.

[2] = system: mice transplanted with JAK2V617F mutated bone marrow; test: Splenomegaly induced by myelofibrosis (JAK2V617F mutated bone marrow transplantation); type: in vivo; conditions: for spleen weight (myelofibrosis-induced splenomegaly), prevention: treatment started one week after bone marrow transplantation, 5 mg/kg daily for three weeks; for spleen weight (myelofibrosis-induced splenomegaly), treatment: treatment started three weeks after bone marrow transplantation, splenomegaly already formed, 5 mg/kg daily for two weeks
Adra2a KO mice = conditions: romiplostim 1 mg/kg s.c. days 1, 8, 15, 5 mg/kg i.p. daily for two weeks from day 8
Experimental: (§1) 8-week female C57BL/6 J wild-type and Adra2a KO mice were administered saline or 1 mg/kg of romiplostim by a subcutaneous injection into the neck skin on days 1, 8 and 15. Clonidine or guanabenz were administrated i.p. at a dose of 5 mg/kg daily for two weeks starting from day 8. Mice were dissected on day 22 and spleen weight were measured. After killing, peripheral blood was drawn by cardiac puncture, the platelet concentration was measured by Cell Counter Analyzer MS9-5V.

C57BL/6 J wild-type mice = conditions: romiplostim 1 mg/kg s.c. days 1, 8, 15, 5 mg/kg i.p. daily for two weeks from day 8
Experimental: as §1

[3] = system: C56BL/6 Wildtype mice implanted with MC38 colon carcinomas; test: Tumor-induced splenomegaly, MC38 colon carcinomas in wildtype mice; type: in vivo; conditions: 5 mg/kg i.p. daily from tumor size around 50 mm^3
Experimental: (§2) C56BL/6 Wildtype or C56BL/6 Adra2a KO mice were implanted with MC38 colon carcinomas and received daily injections of vehicle control, guanabenz or clonidine (5 mg/kg, i.p.) when the tumor size was around 50 mm^3, until the day of sacrifice. Spleen weight were taken at the time of mice dissection.

[4] = system: C56BL/6 Adra2a KO mice implanted with MC38 colon carcinomas; test: Tumor-induced splenomegaly, MC38 colon carcinomas in Adra2a KO mice; type: in vivo; conditions: 5 mg/kg i.p. daily from tumor size around 50 mm^3
Experimental: as §2

TiRP-tumor bearing mice = TiRP-tumor bearing mice with ACT of 10 million P1A-specific CD8+ T cells; each drug 5 mg/kg i.p. daily from tumor size around 500 mm^3
[5] = system: flatworm-induced splenomegaly (schistosomiasis); conditions: cited from earlier work
B16F1 tumor-bearing mice = test: Tumor-induced splenomegaly in B16F1 tumor-bearing mice (spleen weight); type: in vivo; conditions: 5 mg/kg i.p. daily from tumor size around 100 mm^3
Experimental: (§3) B16F1, B16F10 melanoma cells, and CT26 colon carcinoma cells were cultured in IMDM medium supplemented with 10% Fetal bovine serum (FBS). C57BL/6 mice were injected subcutaneously with 1 million B16F1 or B16F10 melanoma cells at an age between 6 to 8 weeks. The mice received daily injections of guanabenz (5 mg/kg, i.p.) or PBS when the tumor size was around 100 mm^3. Mice were sacrificed when the tumor in control group reached 1,000 mm^3. Spleen were isolated and weighted. […] TiRP tumor bearing mice received daily injections of clonidine (5 mg/kg, i.p.), romifidine (5 mg/kg, i.p.) or PBS when the tumor size was around 500 mm^3. Mice were sacrificed when the tumor in control group reached 1,500 mm^3. Spleen were isolated and spleen weight was measured with an analytical balance.

[6] = system: B16F10 tumor-bearing mice; test: Tumor-induced splenomegaly in B16F10 tumor-bearing mice (spleen weight); type: in vivo; conditions: 5 mg/kg i.p. daily from tumor size around 100 mm^3
Experimental: as §3

DBA/2 mice = test: Splenomegaly induced by virus-mediated (Chadox_li_P1A prime, MVA_P1A boost) immunization; type: in vivo; conditions: 5 mg/kg 2 hours before and daily after immunization, two weeks
C57BL/6J mice = test: Splenomegaly induced by protein-mediated (Ovalbumin) immunization; type: in vivo; conditions: 5 mg/kg 2 hours before and daily after immunization, one week
Experimental: C57BL/6J mice were immunized once by intraperitoneal (i.p.) injection of 200 μg of OVA protein adsorbed onto Alhydrogel adjuvant 2% (Sigma Aldrich®). These mice were administered 100 μg (5 mg/kg) of guanabenz 2 hours before the immunization and daily after the immunization. […] One week after the immunization, mice were sacrificed, the spleen of each mouse was collected, and spleen weight was measured with an analytical balance.

[7] = system: patient with obesity-related diseases, such as fatty liver; conditions: cited from earlier work

Row | SMILES | spleen weight (tumor-induced splenomegaly) (TiRP tumor bearing mice) | spleen weight / spleen size [1] | spleen weight (myelofibrosis-induced splenomegaly), prevention [2] | spleen weight (myelofibrosis-induced splenomegaly), treatment [2] | spleen weight (romiplostim-induced splenomegaly) (Adra2a KO mice) | spleen weight (romiplostim-induced splenomegaly) (C57BL/6 J wild-type mice) | spleen weight (tumor-induced splenomegaly) [3] | spleen weight (tumor-induced splenomegaly) [4] | spleen weight / spleen size (TiRP-tumor bearing mice) | splenomegaly [5] | spleen weight (tumor-induced splenomegaly) (B16F1 tumor-bearing mice) | spleen weight (tumor-induced splenomegaly) [6] | spleen weight (immunization-induced splenomegaly) (DBA/2 mice) | spleen weight (immunization-induced splenomegaly) (C57BL/6J mice) | weight of the spleen [7]
1 | Clc1cccc(Cl)c1N=C1NCCN1 [clonidine] | TiRP tumor-induced splenomegaly is inhibited | reduced the spleen size | significantly reduced the splenomegaly | significantly reduced the splenomegaly | not in Adra2a KO mice | significantly reduced the splenomegaly | inhibit tumor-induced splenomegaly | no inhibition is observed | reduced spleen size | – | – | – | – | – | –
2 | CN1C[C@H](C(=O)N[C@]2(C)O[C@@]3(O)[C@@H]4CCCN4C(=O)[C@H](Cc4ccccc4)N3C2=O)C=C2c3cccc4[nH]cc(c34)C[C@H]21 [ergotamine] | – | – | – | – | – | – | – | – | – | reduced flatworm-induced splenomegaly | – | – | – | – | –
3 | N=C(N)N/N=C/c1c(Cl)cccc1Cl [guanabenz] | can reverse the tumor-induced splenomegaly | reduced the spleen size | significantly reduced the splenomegaly | significantly reduced the splenomegaly | – | – | inhibit tumor-induced splenomegaly | no inhibition is observed | – | – | can reverse the tumor-induced splenomegaly | can reverse the tumor-induced splenomegaly | inhibits splenomegaly | inhibits splenomegaly | promoting a decrease in the weight of the spleen
4 | Fc1cccc(Br)c1NC1=NCCN1 [romifidine] | TiRP tumor-induced splenomegaly is inhibited | – | – | – | – | – | – | – | – | – | – | – | – | – | –
